Results: patent publication EP0486958A1, “Physostigmine derivatives” (MEDIOLANUM FARMACEUTICI s.r.l., priority 1990, dated 1992)
Values joined by “and” are separate entries in the source; they are usually repeats but may differ in a detail not shown here. Equal values may be shown once. Read-outs that look alike come from different tables or passages of the source.

Legend:
acetylcholinesterase = acetylcholinesterase (Homo sapiens, UniProt P22303); conditions: literature data; cited from earlier work
Chain of acetylcholinesterase (P22303 32-614): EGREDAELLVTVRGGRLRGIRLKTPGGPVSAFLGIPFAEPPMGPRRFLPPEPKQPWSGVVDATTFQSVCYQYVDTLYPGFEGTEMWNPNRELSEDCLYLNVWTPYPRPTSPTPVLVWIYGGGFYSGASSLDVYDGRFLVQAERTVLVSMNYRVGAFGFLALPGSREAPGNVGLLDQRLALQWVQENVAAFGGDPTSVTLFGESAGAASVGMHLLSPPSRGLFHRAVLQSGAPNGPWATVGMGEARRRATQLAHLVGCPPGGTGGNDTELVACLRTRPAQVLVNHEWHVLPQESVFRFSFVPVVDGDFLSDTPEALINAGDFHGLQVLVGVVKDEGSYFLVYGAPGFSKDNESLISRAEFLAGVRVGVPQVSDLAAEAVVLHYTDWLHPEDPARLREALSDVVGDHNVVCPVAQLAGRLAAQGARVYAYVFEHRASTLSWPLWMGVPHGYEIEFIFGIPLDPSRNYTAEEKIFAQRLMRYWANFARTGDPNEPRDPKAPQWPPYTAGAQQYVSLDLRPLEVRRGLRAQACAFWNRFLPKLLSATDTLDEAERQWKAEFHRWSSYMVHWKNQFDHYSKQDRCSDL

[1] = molecular target: T1, Electric Eel acetylcholinesterase, type V.S. (Electrophorus electricus, UniProt O42275); assay: Acetylcholinesterase inhibiting activity, test in vitro (Ellman method); assay type: biochemical; conditions: 20 min incubation, 25°C, phosphate buffer pH 8
T1 construct: purchased Sigma Chemicals type V.S
T1 sequence (O42275 24-633): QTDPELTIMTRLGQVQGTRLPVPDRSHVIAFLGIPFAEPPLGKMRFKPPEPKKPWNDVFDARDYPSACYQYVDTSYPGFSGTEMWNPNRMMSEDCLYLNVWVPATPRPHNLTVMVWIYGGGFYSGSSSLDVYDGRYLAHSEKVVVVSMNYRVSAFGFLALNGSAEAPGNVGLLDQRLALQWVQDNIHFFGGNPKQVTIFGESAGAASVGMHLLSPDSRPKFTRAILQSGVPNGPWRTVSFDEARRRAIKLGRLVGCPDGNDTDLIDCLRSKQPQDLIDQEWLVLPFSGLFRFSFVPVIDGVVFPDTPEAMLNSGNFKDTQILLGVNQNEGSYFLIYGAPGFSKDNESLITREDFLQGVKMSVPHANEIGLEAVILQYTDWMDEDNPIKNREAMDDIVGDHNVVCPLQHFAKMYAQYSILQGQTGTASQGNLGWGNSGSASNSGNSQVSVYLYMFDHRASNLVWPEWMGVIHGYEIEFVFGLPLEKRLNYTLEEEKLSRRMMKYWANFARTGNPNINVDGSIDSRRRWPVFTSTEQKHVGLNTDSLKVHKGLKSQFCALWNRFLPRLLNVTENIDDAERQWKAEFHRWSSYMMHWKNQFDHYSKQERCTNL
Method: The acetylcholinesterase activity was determined by the method of Ellman et al. (Ellman, G.L. Courtney, K.D. Andres, V., Featherstone, R.M. A new and rapide colorimetric determination of acetylcholinesterase activity - Biochem. Pharm., 1961, 7, 88).
The Electric Eel acetylcholinesterase, type V.S. of Sigma Chemicals was employed.
To determine IC₅₀, the incubation medium consisted of: Ellman reagent (5,5'-Dithiobis-2-nitrobenzoic acid) 100 µl; enzymatic solution (5,5 units/ml) 35 µl; variable concentration inhibitor 50 µl; phosphate buffer (0.1 mol/l; pH 8) 3000 µl. After 20 min. incubation, 20 µl acetylcholine (0.075 mol/l) are added, and the spectrophotomer, with kinetic software and thermostated at 25°C, was read for 3-5 min. At this point the reaction is in the stationary state. The concentrations of the products apt to inhibit by 50% (IC₅₀) the enzyme activity were calculated.

Acute toxicity (LD₅₀) = assay type: in vivo, Suiss female rats; conditions: rat, tartrates dissolved in water
Method: (§1) The LD₅₀ acute toxicity of the compounds obtained in Examples 2,3,4 and 6 has evaluated on Suiss female rats.
(§2) The compounds were administered per os and endovenously to different groups of animals in the form of tatrates dissolved in water. (The endovenous administration provides the highest bio-availability of the products). The results are shown in Table 3, together with the comparison ones obtained employing physostigmine.

Suiss female rats = assay: Acute toxicity (LD₅₀); assay type: in vivo; conditions: for acute toxicity lower than the one of physostigmine: relative to physostigmine
Method: as §1, §2

[2] = molecular target: T2, brain acetylcholinesterase (Rattus norvegicus, UniProt P37136); assay: Brain acetylcholinesterase activity after oral administration to rats (enzymatic dosage, Ellman method on isolated brains); assay type: in vivo, male CD/SD rats; conditions: 50 mg/kg by gastric probe as tartrates in water, vs control group, individual animals; for % Variation of acetylcholinesterase at time 10′: 10′ after treatment; for % Variation of acetylcholinesterase at time 60′: 60′ after treatment; for % Variation of acetylcholinesterase at time 120′: 120′ after treatment
T2 construct: from tissue; host or cells: brain of male CD/SD rats
T2 sequence (P37136 32-614): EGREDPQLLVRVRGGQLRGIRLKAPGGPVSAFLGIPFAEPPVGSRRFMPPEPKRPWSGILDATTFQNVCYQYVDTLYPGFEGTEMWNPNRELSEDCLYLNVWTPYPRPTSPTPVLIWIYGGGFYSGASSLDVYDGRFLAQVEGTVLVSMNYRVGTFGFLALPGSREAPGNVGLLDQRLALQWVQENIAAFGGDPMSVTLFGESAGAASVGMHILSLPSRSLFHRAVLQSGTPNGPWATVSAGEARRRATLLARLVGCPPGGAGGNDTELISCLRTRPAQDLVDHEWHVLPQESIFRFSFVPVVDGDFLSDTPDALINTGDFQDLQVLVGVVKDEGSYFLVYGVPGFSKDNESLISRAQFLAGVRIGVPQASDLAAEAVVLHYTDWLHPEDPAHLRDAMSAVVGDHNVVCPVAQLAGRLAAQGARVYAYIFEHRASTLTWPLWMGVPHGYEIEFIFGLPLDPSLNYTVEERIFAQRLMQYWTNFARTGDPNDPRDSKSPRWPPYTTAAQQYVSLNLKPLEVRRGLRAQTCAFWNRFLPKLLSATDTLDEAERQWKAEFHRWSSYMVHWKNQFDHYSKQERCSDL
Method: The effects of the compounds of Examples 2 and 3 on the brain acetylcholinesterase activity of male CD/SD rats evaluation were administered by gastric probe at the dose of 50 mg/kg in the form of tartrates dissolved in water. The rats were previously kept from eating for 18 hrs. One group of rats treated by or with physiological solution served as control. The rats were sacrificed by decapitation at various times after the treatment with the products under examination. On the isolated brains the acetylcholinesterase activity was determined by the Ellman et al. method employed in the "vitro" tests.
The percentage variation of the acetylcholinesterase activity in the brain of the rats treated by or with the brains of rats treated with physiological solution (control group) was calculated.

[3] = water, iv, endovenous, read-out: LD₅₀ endovenous
[4] = water, po, oral (per os), read-out: LD₅₀ oral

Structure (SMILES)	IC50 [1]	LD50 (Acute toxicity (LD₅₀); [3])	LD50 (Acute toxicity (LD₅₀); [4])	LD₅₀ endovenous (Suiss female rats; tartrates dissolved in water)	% Variation of acetylcholinesterase at time 10′ [2]	% Variation of acetylcholinesterase at time 60′ [2]	% Variation of acetylcholinesterase at time 120′ [2]	acute toxicity lower than the one of physostigmine (Suiss female rats)	further results
CCN(CC)C(=O)Oc1ccc2c(c1)C1(C)CCN(C)C1N2C (stereo not shown) [diethylphysostigmine]									acetylcholinesterase inhibiting activity (acetylcholinesterase): low inhibiting activity
CN(Cc1ccccc1)C(=O)Oc1ccc2c(c1)[C@]1(C)CCN(C)[C@@H]1N2C [Example 6, 1,2,3,3a,8,8a-hexahydro-1,3a,8-trimethylpyrrol.(2,3-b)indol-5-ol (3aS-cis) N-methyl,N-benzyl carbamate (ester)]	1000 nM	< 50 mg/kg	~70 mg/kg						
CCCN(C)C(=O)Oc1ccc2c(c1)[C@]1(C)CCN(C)[C@@H]1N2C (relative stereo) [Example 2, 1,2,3,3a,8,8a-hexaydro-1,3a,8-trimethylpyrrol(2,3-b)indol-5-ol(3aS-cis)-N-methyl,N-propylcarbamate (ester)]	1100 nM			>50 mg/kg and <100 mg/kg					LD₅₀ oral (Suiss female rats; oral (per os), tartrates dissolved in water): >100 mg/kg and <150 mg/kg
CNC(=O)Oc1ccc2c(c1)[C@]1(C)CCN(C)[C@@H]1N2C [Physostigmine]									LD50 (Acute toxicity (LD₅₀); female, Suiss, in vivo, intravenous, endovenous, read-out: LD₅₀ endovenous): 0.58 mg/kg; LD50 (Acute toxicity (LD₅₀); female, Suiss, in vivo, po, oral (per os), read-out: LD₅₀ oral): 2.2 mg/kg
CCCCCCCN(C)C(=O)Oc1ccc2c(c1)[C@]1(C)CCN(C)[C@@H]1N2C [Example 4, 1,2,3,3a,8,8a-hexahydro-1,3a,8-trimethylpyrrol(2,3-b)indol-5-ol (3aS-cis) N-methyl,N-heptylcarbamate (ester)]	3500 nM	> 50 mg/kg	> 200 mg/kg	<100 mg/kg	0% and 5,7%	-52,7% and -47,1%	-54,5% and -56,5%	approximately 100 times	
CCCCCN(C)C(=O)Oc1ccc2c(c1)[C@]1(C)CCN(C)[C@@H]1N2C [Example 3, 1,2,3,3a,8,8a-hexahydro-1,3a,8-trimethylpyrrol(2,3-b)indol-5-ol(3aS-cis)-N-methyl,N-pentylcarbamate (ester)]	1900 nM	> 50 mg/kg	> 178 mg/kg	<100 mg/kg	-60,1% and -53,8%	-69,6% and -70,9%	-72,0% and -68,0%	approximately 100 times	
